# Measured values reported in US9980967B1, “Method for overcoming drug resistance of EGFR mutation and cancerous stemness of human non-small cell lung carcinoma” (NATIONAL CHIAO TUNG UNIVERSITY, priority 2017, dated 2018).
# Tests used:
# [1] = test system: A549 cells; test: Annexin V/PI apoptosis flow cytometry in A549 cells; format: cell-based, human; conditions: 30 μM for 24 hours
# Description: At the end of treatment, apoptosis was measured by Annexin VPI staining using flow cytometry analysis. The population of Annexin V+/PI− cells represents cells undergoing early apoptosis (low right), whereas the fraction of Annexin V+/PI+ cell are those undergoing late apoptosis (upper right). The representative flow data were shown from one of three separate experiments with similar findings.
# Please refer to FIG. 14. The expressions of phosphorylated EGFR and total EGFR proteins after treatment with SP101 (10˜40 μM for 24 hours) in the K-Ras mutation A549 cells were analyzed by Western blot. […] Please refer to FIG. 15. We further examined the apoptosis levels of SP101 in A549 cells by Annexin V and PI staining. The cells were trypsinized and then incubated with propidium iodide (5 μl) and Annexin V-FITC (5 μl) at room temperature for 5 min before flow cytometry.
# [2] = test system: A549-ON cells; test: Annexin V/PI apoptosis flow cytometry in A549-ON cells; format: cell-based, human; conditions: 30 μM
# Description: At the end of treatment, apoptosis was measured by Annexin V-PI staining using flow cytometry analysis. The population of Annexin V+/PI− cells represents cells undergoing early apoptosis (low right), whereas the fraction of Annexin V+/PI+ cell are those undergoing late apoptosis (upper right). The representative flow data were shown from one of three separate experiments with similar findings.
# The bar represents the mean±S.E.M. ***p<0.001 indicates significant difference between untreated and SP101 or Gefitinib treated samples.
# We compared the apoptosis levels of SP101 and Gefitinib in cancer stem-like A549-ON cells by Annexin V and PI staining. Please refer to FIG. 19. […] Please refer to FIG. 20. The average of total apoptosis follows SP101 and Gefitinib in the A549-ON cells around 69.29% and 7.59%, respectively.
# [3] = target: T1, phosphorylated EGFR (Tyr 1068) (Homo sapiens, UniProt P00533, L858R/T790M); test: Western blot of phosphorylated EGFR and total EGFR in H1975 cells; format: cell-based; conditions: 20~30 μM for 24 hours
# T1 construct: endogenous in cells; host or cells: H1975 (ATCC CRL-5908)
# Description: EGFR binding cognate ligands may lead to autophosphorylation of receptor tyrosine kinase and subsequent activation of signal transduction pathways of cell survival. Besides, aberrant tyrosine kinase activation increases proliferation and drug resistance of malignant cells. Please refer to FIG. 3. H1975 cells were treated with 0˜30 μM of SP101 for 24 hours. The total protein extracts were prepared for Western blot analyses using specific antibodies, including rabbit anti-p-EGFR (Tyr1068), rabbit anti-EGFR and mouse anti-actin. Representative immunoblotting data were shown from one of three separate experiments with similar findings. Actin was an internal control protein.
# [4] = test system: Survivin and cleaved Caspase 3 in xenograft tumor tissues; test: Western blot and IHC of Survivin and cleaved Caspase 3 in xenograft tumor tissues; format: in vivo, nude mice
# Excerpt: FIG. 11 is a result of IHC immunohistochemistry staining showing that SP101 enhanced Caspase 3 protein level in NSCLC tumor tissues. Representative photographs were by IHC staining the active Caspase 3 proteins in the tumor sections. Positive cells were visualized by DAB staining (brown), counterstain with nuclei by hematoxylin.
# Please refer to FIG. 10. The xenograft tumor tissues from each group were homogenized and the total lysates were subjected to Western blot analysis using specific antibodies, including rabbit anti-Survivin, rabbit anti-cleaved Caspase 3 and mouse anti-actin. Representative immunoblotting data were shown from one of two separate experiments with similar findings. Actin was an internal control protein. SP101 reduced Survivin protein level; meanwhile, SP101 induced the apoptotic protein level of cleaved Caspase 3.
# [5] = test system: PLC26 cells; test: MTT cell viability assay in PLC26 cells; format: cell-based, human; conditions: 0~40 μM for 24 hours, compared with Gefitinib
# Description: After treatment, the cells were re-cultured in fresh medium for 2 days. The cell viability was analyzed by MTT assays. The results were obtained from three independent experiments and the bar represents the mean±S.E.M. ***p<0.001 indicates significant difference between gefitinib and SP101 treated samples.
# (§1) A549 (ATCC number: CCL-185) was a non-small cell lung carcinoma cell line which expressed wild type EGFR and with K-Ras mutation (G12S). H1975 (ATCC number: CRL-5908) was a non-small cell lung carcinoma cell line which expressed EGFR L858R/T790M mutation. Oct4 and Nanog overexpression in A549-ON presented the properties of cancer stem-like cells, as well as epithelial-mesenchymal transdifferentiation. PLC26 was lung cancer cells that separated from pleural effusion of a clinical lung cancer patient (IRB number: 103-011-E). A549-ON cells were cultured in DMEM medium. A549 and H1975 cells were maintained in RPMI-1640 medium. PLC26 cells were maintained in LHC-9 medium. […]
# We have further investigated the effect of SP101 in PLC26 lung cancer cells separated from the pleural effusion of a clinical lung cancer patient. To compare the cell viability of SP101 and Gefitinib in PLC26 cells, the cells were treated with 0˜40 μM SP101 or Gefitinib for 24 hours, and analyzed by MTT assays. […] The apoptosis levels of SP101 in PLC26 cells were analyzed by Annexin V and PI staining. […]
# [6] = test system: A549-ON cells; test: MTT cell viability assay in A549-ON cells; format: cell-based, human; conditions: 10~40 μM for 24 hours, concentration-dependent
# Description: After treatment, the cells were re-cultured in fresh medium for 2 days. The cell viability was analyzed by MTT assays. The results were obtained from three independent experiments and the bar represents the mean±S.E.M. ***p<0.001 indicates significant difference between Gefitinib and SP101 treated samples.
# as §1, with “medium.” for “medium. PLC26 cells were maintained in LHC-9 medium.”
# Please refer to FIG. 12. […] To compare the cell viability of SP101 and Gefitinib in K-Ras mutation-drug resistant A549 and A549-ON cell lines, the cells were treated with 0˜40 μM SP101 or Gefitinib for 24 hours, and analyzed by MTT assays. […] To determine the effect of SP101 and Gefitinib on the cell viability in cancer stem-like A549-ON cells, the cells were treated with 10˜40 μM SP101 or Gefitinib for 24 hours, and analyzed by MTT assays.
# [7] = xenograft tumor tissues, Western blot
smiles,measurement,setting,value
"CCCCCCCCCCCCOC(=O)CCC(=O)N1CCN(CCCOc2cc3c(Nc4ccc(F)c(Cl)c4)ncnc3cc2OC)CC1 [SP101, dodecyl 4-(4-(3-(4-(3-chloro-4-fluorophenylamino)-7-methoxyquinazolin-6-yloxy)propyl)piperazin-1-yl)-4-oxobutanoate]",levels of Annexin V+/PI− cells (early apoptosis) and Annexin V+/PI+ cells (late apoptosis),[1],significantly increased
same,"late apoptosis cells, compared with Gefitinib",[2],induced more late apoptosis cells than Gefitinib
same,levels of Annexin V+/PI− cells (early apoptosis) and Annexin V+/PI+ cells (late apoptosis),[2],significantly increased
same,average of total apoptosis,"[2]; early and late apoptosis, flow cytometry",around 69.29%
same,phosphorylated EGFR (Tyr 1068) protein level,[3],significantly reduced
same,total EGFR protein level,[3],did not inhibit
same,Survivin protein level,[4]; [7],reduced
same,apoptotic protein level of cleaved Caspase 3,[4]; [7],induced
same,"reduction of Survivin protein and increasing of cleaved Caspase 3 protein level, compared with Gefitinib",[4]; [7],more potent
same,active forms of Caspase 3 protein,"[4]; xenografted NSCLC tumors, IHC staining, compared with control and Gefitinib groups",significantly induced
same,reduction of cell viability,[5],more effective on the reduction of cell viability than Gefitinib
same,cell viability,[6],significantly reduced
